The source of these data is patent US20200165194A1, “ADDITIVE COMPOSITION FOR CULTURE MEDIUM, ADDITIVE COMPOUND FOR CULTURE MEDIUM, AND METHOD FOR CULTURE OF CELLS OR TISSUE USING SAME” (NISSAN CHEMICAL CORPORATION, priority 2017, published 2020).

Like-named read-outs stand apart in the source and are kept apart here. A value given as a limit tells only on which side of the number the result lay.

What all share (format): cell-based
The test system of data set [1] is human uterus cervix cancer-derived cell line HeLa. Nature of the data set: Various human cancer cells-2, 3D culture, ATP assay (Experimental Example 6). Conditions: 4 days. The procedure: (§1) Various human-derived cancer cells were precultured (single layer culture) in respective media shown below. […] The above-mentioned cells in the logarithmic growth phase were washed with PBS, a 0.25 w/v % trypsin-1 mmol/L EDTA (ethylenediaminetetraacetic acid) solution (manufactured by Wako Pure Chemical Industries, Ltd.) was added, and adherent cells were detached by incubating at 37° C. for 1-5 min. Each medium was added and the mixture was centrifuged. After resuspension in the same medium, each cell was recovered.
(§2) The aforementioned various cells were suspended in respective deacylated gellan gum-containing or not containing media (deacylated gellan gum concentration was 0.015 w/v %), and seeded in a 96 well low attachment U-bottom plate (manufactured by Corning, #4520, deacylated gellan gum-free medium), or a low attachment flat bottom plate (manufactured by Corning, #3474, deacylated gellan gum-containing medium) at a cell concentration of 700-12000 cells/90 μL/well (all 3D culture). […] The amount of each compound solution to be added was 10 μL/well. As a control, a DMSO solution dissolved in a medium was added (DMSO final concentration 0.1%). […] When compared with the compound no-addition (control), one showing a value of not more than 119% as -, one showing a value of not less than 120% as ◯, and one showing a value of not less than 150% as ⊚ are shown in the eleventh table and the twelfth table. Unperformed test is left blank.

In data set [2] the test system is human epithelial-like cell cancer-derived cell line A431. The data set is described as above. To be noted: 4 days; for viability at 5 µM: Homo sapiens, A-431, 96 h, read-out: number of viable cells (RLU), relative value to control (100%). The procedure:
as §1, §2

Data set [3] concerns human prostate cancer-derived cell DU145. Nature of the data set: Various human cancer cells-1, 3D culture, WST-8 (Experimental Example 5). Conditions: 4 days; for viability at 5 µM / viability at 10 µM: Homo sapiens, DU-145, 96 h, read-out: number of viable cells, relative value to control (100%). From the text: (§3) Various human-derived cancer cells were precultured (single layer culture) in respective media shown below. Human uterus cervix cancer-derived cell line HeLa (manufactured by American Type Culture Collection (hereinafter indicated as ATCC), 10% fetal bovine serum (FBS, manufactured by Corning)-containing Dulbecco's Modified Eagle's Medium (hereinafter abbreviated as DMEM) (manufactured by Wako Pure Chemical Industries, Ltd.)), human malignant melanoma-derived cell line A375 (manufactured by ATCC, 10% FBS-containing DMEM), human epithelial-like cell cancer-derived cell line A431 (manufactured by ATCC, 10% FBS and 1% MEM non-essential amino acid solution (MEM Non-Essential Amino Acids solution (hereinafter abbreviated as NEAA) (manufactured by Wako Pure Chemical Industries, Ltd.))-containing Eagle's Minimum Essential Medium (hereinafter abbreviated as EMEM) (manufactured by Wako Pure Chemical Industries, Ltd.)), human stomach adenocarcinoma-derived cell line AGS (manufactured by DS PHARMA BIO MEDICAL, 10% FBS-containing Ham's F-12 (manufactured by Wako Pure Chemical Industries, Ltd.)), human prostate cancer-derived cell line LNCaP clone FGC (manufactured by ATCC, 10% FBS-containing RPMI1640 (manufactured by Wako Pure Chemical Industries, Ltd.)), human colon adenocarcinoma-derived cell line HCT116 (manufactured by DS PHARMA BIO MEDICAL, 10% FBS-containing McCoy's 5A Medium (manufactured by Sigma-Aldrich)), human alveolar basal epithelial adenocarcinoma-derived cell line A549 (manufactured by DS PHARMA BIO MEDICAL, 10% FBS-containing DMEM), human prostate cancer-derived cell DU145 (manufactured by ATCC, 10% FBS-containing EMEM). The above-mentioned cells in the logarithmic growth phase were washed with PBS, a 0.25 w/v % trypsin-1 mmol/L EDTA (ethylenediaminetetraacetic acid) solution (manufactured by Wako Pure Chemical Industries, Ltd.) was added, and adherent cells were detached by incubating at 37° C. for 1-5 min. Each medium was added and the mixture was centrifuged. After resuspension in the same medium, each cell was recovered.
(§4) The aforementioned various cells were suspended in respective deacylated gellan gum-containing or not containing media (deacylated gellan gum concentration was 0.015 w/v %, and 0.020 w/v % for RPMI1640 alone), and seeded in a 96 well low attachment U-bottom plate (manufactured by Corning, deacylated gellan gum-free medium), or a low attachment flat bottom plate (manufactured by Corning, deacylated gellan gum-containing medium) at a cell concentration of 1000-12000 cells/135 μL/well (all 3D culture). After static culture overnight in 37° C., 5% CO2 incubator, a DMSO solution of the compound to be used in the present invention was added to each medium at a final concentration of 5 μM or 10 μM. The amount of each compound solution to be added was 15 μL/well. As a control, a DMSO solution dissolved in a medium was added (DMSO final concentration 0.1%). After continuously culturing in an incubator at 37° C., 5% CO2 for 4 days, WST-8 solution (manufactured by DOJINDO LABORATORIES) was added at 15 μL/well, and the mixture was reacted in the same incubator for 1-2 hr. […] When compared with the compound no-addition (control), one showing a value of not more than 119% as -, one showing a value of not less than 120% as ◯, and one showing a value of not less than 150% as ⊚ are shown in the tenth table.
Background: Tetrazolium dyes change colour on reduction, which living cells bring about.

Data set [4] relates to human stomach adenocarcinoma-derived cell line AGS. Described as above. To be noted: 4 days; for viability at 5 µM / viability at 10 µM: Homo sapiens, 96 h, read-out: number of viable cells, relative value to control (100%).
Description: as §3, §4

For data set [5], the system named is human uterus cervix cancer-derived cell line HeLa. The description is as above. To be noted: 4 days.
Description: as §3, §4

Data set [6] has as its system human alveolar basal epithelial adenocarcinoma-derived cell line A549. The description is as above. Conditions: 4 days; for viability at 5 µM / viability at 10 µM: Homo sapiens, A549, 96 h, read-out: number of viable cells, relative value to control (100%).
Description: as §3, §4

Data set [7] deals with human colon adenocarcinoma-derived cell line HCT116. Described as above. Conditions: 4 days.
Description: as §3, §4

The mark [8] stands for this setting: low attachment U-bottom plate, 5 μM.
[9] abbreviates: low attachment U-bottom plate, 10 μM.
The mark [10] stands for this setting: low attachment flat bottom plate (gellan gum medium), 5 μM.
The mark [11] stands for this setting: low attachment flat bottom plate (gellan gum medium), 10 μM.
The mark [12] stands for this setting: low attachment U-bottom plate (gellan gum-free), 5 μM.
[13] abbreviates: low attachment U-bottom plate (gellan gum-free), 10 μM.

Turning to `CC/C(=N\NC(=O)C(C)Nc1ccccc1)c1ccc(O)c(C)c1O` (centres unmarked) [k-1:B-1], the “number of viable cells (RLU), relative value to control (100%)” value in data set [1] (setting [8]), in data set [1] (setting [9]), in data set [1] (setting [10]), in data set [1] (setting [11]), in data set [2] (setting [8]) and in data set [2] (setting [9]) was “⊙” in each case. Further, the “number of viable cells (RLU), relative value to control (100%)” value in data set [2] (setting [10]) and in data set [2] (setting [11]) was “⊙” in each case.

As for `CCC(=NNC(=O)C(CC)Nc1ccccc1)c1ccc(O)c(C)c1O` (centres unmarked) [k-1:H-7], the “number of viable cells, relative value to control (100%)” value in data set [3] (setting [12]) was “◯ (one showing a value of not less than 120% as ◯)”; in data set [3] (setting [13]) it was “⊙”; in data set [3] (setting [10]) it was “⊙”; in data set [3] (setting [11]), “⊙”; in data set [4] (setting [12]), “◯ (one showing a value of not less than 120% as ◯)”; in data set [4] (setting [13]), “◯ (one showing a value of not less than 120% as ◯)”. Besides, the “number of viable cells, relative value to control (100%)” value in data set [4] (setting [11]) is given as “◯ (one showing a value of not less than 120% as ◯)”; in data set [5] (setting [11]), “◯ (one showing a value of not less than 120% as ◯)”; in data set [6] (setting [13]), “◯ (one showing a value of not less than 120% as ◯)”; in data set [6] (setting [10]), “⊙”; in data set [6] (setting [11]) it was “⊙”; in data set [7] (setting [13]), “◯ (one showing a value of not less than 120% as ◯)”. Also, the “number of viable cells, relative value to control (100%)” value is listed as “◯ (one showing a value of not less than 120% as ◯)” in data set [7] (setting [10]) and “⊙” in data set [7] (setting [11]).

`CC/C(=N\NC(=O)Nc1ccccc1)c1ccc(O)c(C)c1O` [k-1:H-10]: the viability at 5 µM in data set [3] (setting [12]) is 120 to 150%; in data set [3] (setting [10]), < 119%; in data set [4] (setting [12]) it was 120 to 150%; in data set [4] (setting [10]) it was < 119%; in data set [5] (Homo sapiens, 96 h, low attachment U-bottom plate (gellan gum-free), 5 μM, read-out: number of viable cells, relative value to control (100%)), < 119%; in data set [6] (setting [12]) it was < 119%. Besides, the viability at 5 µM in data set [6] (setting [10]) was 120 to 150%; in data set [7] (Homo sapiens, HCT-116, 96 h, low attachment U-bottom plate (gellan gum-free), 5 μM, read-out: number of viable cells, relative value to control (100%)) it was < 119%. Further, the viability at 10 µM was < 119% in data set [3] (setting [13]); 120 to 150% in data set [3] (setting [11]); < 119% in data set [4] (setting [13]); < 119% in data set [4] (setting [11]); < 119% in data set [5] (Homo sapiens, 96 h, low attachment U-bottom plate (gellan gum-free), 10 μM, read-out: number of viable cells, relative value to control (100%)); < 119% in data set [6] (setting [13]). Also, the viability at 10 µM in data set [6] (setting [11]) was 120 to 150%; in data set [7] (Homo sapiens, HCT-116, 96 h, low attachment U-bottom plate (gellan gum-free), 10 μM, read-out: number of viable cells, relative value to control (100%)), < 119%.

For `CC/C(=N\NC(=O)NCc1ccccc1)c1ccc(O)c(C)c1O` [k-1:I-1], the viability at 5 µM in data set [1] (Homo sapiens, 96 h, low attachment U-bottom plate, 5 μM, read-out: number of viable cells (RLU), relative value to control (100%)) is < 119%; in data set [2] (setting [8]), 120 to 150%; in data set [2] (setting [10]), < 119%. For the same compound, the viability at 10 µM in data set [1] (Homo sapiens, 96 h, low attachment U-bottom plate, 10 μM, read-out: number of viable cells (RLU), relative value to control (100%)) is < 119%. Further, the “number of viable cells (RLU), relative value to control (100%)” value in data set [2] (setting [9]) and in data set [2] (setting [11]) was “⊙” throughout.
